System: LPS-induced release of endogenous TNFα from human THP-1 monocytic cells
Assay: ELISA-based TNFα release assay, LPS-induced, THP-1 cells
Assay type: cell-based
Conditions: LPS 50 ng/ml, 2 hours, antibodies purified from hybridoma supernatants and IgG at 10 μg/ml, Batimastat at 10 μM
Description: In the following study, ELISA-based TNFα release assays were performed to verify the inhibitory effects of the purified antibodies of the invention on LPS-induced release of endogenous TNFα from human THP-1 monocytic cells.
In brief, on day 1, Nunc black MaxiSorp® 96-well plates (Thermo Fisher Scientific, USA) were coated overnight with 100 μl per well of mouse anti-human TNFα capture antibody (provided as part of the DuoSet ELISA kit) at 4 μg/ml TBS at 4° C. On day 2, the capture antibody solution was removed and MaxiSorp® plates were blocked with 300 μl per well of TBS, 1% BSA at room temperature for 3 hours. […]
Following another round of 4 times washing with 350 μl TBS-T (Carl Roth, Germany) per well on a 96-head plate washer (Tecan Group, Switzerland) and careful removal of all buffer traces after the fourth cycle, 100 μl AttoPhos substrate solution (Promega, USA) per well was added for incubation in the dark at room temperature for 1 hour. Using an infinite M1000 (Tecan Group, Switzerland) microplate reader, the fluorescence of each well was collected at an excitation wavelength of 435 nm and an emission wavelength of 555 nm. […]

## CNC(=O)[C@H](Cc1ccccc1)NC(=O)[C@H](CC(C)C)[C@H](CSc1cccs1)C(=O)NO [Batimastat]
  inhibition at 10 µM: 96.2%

Source: patent US20240287172A1, “PROTEIN BINDERS TO IRHOM2 EPITOPES” (SCIRHOM GMBH, priority 2019, published 2024)
